The assay addresses Envelope glycoprotein gp160 (Human immunodeficiency virus 1, UniProt Q6QLK5). Description: inhibitors of HIV fusion peptide binding, primary screen, biochemical, uHTS, fluorescence dequenching (AID 1986).

We go through 1 compound from ChEMBL document CHEMBL1201862, “PubChem BioAssay data set” (2004).

The source made the active and inactive calls. Cut-off read from the data, not from the text of the source: actives have a measured IC50 and inactives only a lower limit.

Envelope glycoprotein gp160, sequence (Q6QLK5 whole entry, the tested form may be a part): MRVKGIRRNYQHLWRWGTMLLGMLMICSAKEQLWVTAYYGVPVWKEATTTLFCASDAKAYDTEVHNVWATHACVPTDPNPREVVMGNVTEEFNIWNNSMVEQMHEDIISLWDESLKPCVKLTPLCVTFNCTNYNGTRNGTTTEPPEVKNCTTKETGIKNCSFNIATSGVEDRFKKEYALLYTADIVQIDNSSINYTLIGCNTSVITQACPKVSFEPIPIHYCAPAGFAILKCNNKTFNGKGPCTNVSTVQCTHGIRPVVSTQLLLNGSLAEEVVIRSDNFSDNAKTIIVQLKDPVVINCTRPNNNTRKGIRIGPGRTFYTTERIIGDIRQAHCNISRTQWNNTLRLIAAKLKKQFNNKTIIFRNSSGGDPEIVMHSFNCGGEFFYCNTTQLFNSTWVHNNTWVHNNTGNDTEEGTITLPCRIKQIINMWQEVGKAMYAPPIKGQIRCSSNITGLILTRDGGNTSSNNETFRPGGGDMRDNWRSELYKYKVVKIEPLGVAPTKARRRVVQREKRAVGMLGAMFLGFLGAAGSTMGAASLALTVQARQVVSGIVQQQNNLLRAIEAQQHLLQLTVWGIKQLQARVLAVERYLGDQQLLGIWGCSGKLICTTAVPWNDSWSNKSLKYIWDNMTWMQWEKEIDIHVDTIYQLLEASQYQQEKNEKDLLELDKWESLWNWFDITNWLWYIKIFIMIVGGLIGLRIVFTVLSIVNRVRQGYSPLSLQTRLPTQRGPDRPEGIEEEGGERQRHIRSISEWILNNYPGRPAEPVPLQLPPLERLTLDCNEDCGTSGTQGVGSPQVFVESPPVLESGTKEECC

In general, IC50 refers to the concentration needed to halve the response being measured. As for `Cc1ccc(N2C(=O)/C(=C\Nc3ccccc3-c3nnc(S)nc3O)c3ccccc3C2=O)c(C)c1`, the IC50 is 23.9 µM (active).
